Laboratory results from patent US11297805B2, “Miticidal beehive entranceway” (priority 2019, dated 2022).

Tests used:
[1] = Simulated bee-flight (drone propeller) thymol decay and model of thymol dosage on a worker bee; design: species or system honey bee; settings: 1 mg thymol/Hydromed behind drone propellers, 6 hours per day, exponential decay
Procedure: As such, a single worker bee would pass through the DF-TE 40×, receiving ˜0.7 μg per passage, or 28 μg per day.

Varroa mites = settings: concentrated enough to kill the mites but not to harm the bees; cited from earlier work

For `Cc1ccc(C(C)C)c(O)c1` [thymol], the “time until a single daily dose of thymol is exhausted on the bee abdomen” value [1] is listed as no more than 4 days and the “therapeutic window of thymol vapor” value (Varroa mites) is listed as 5-15 microgram/liter of hive air.
